The results in this text go back to patent publication US20090215883A1, “Pharmaceutical formulation comprising taxane, a solid composition of taxane, a process for preparing said solid composition of taxane, a solubilizing composition of said solid composition of taxane, and a kit for the injectable formulation of taxane” (ERIOCHEM S.A., priority 2006, published 2009).

The structures appear in SMILES notation.

The nature of this series: Laboratory tests of direct dissolution in tensoactives. The series is classed as physicochemical.

As to `CC(=O)O[C@@]12CO[C@@H]1C[C@H](O)[C@@]1(C)C(=O)[C@H](O)C3=C(C)[C@@H](OC(=O)[C@H](O)[C@@H](NC(=O)OC(C)(C)C)c4ccccc4)C[C@@](O)([C@@H](OC(=O)c4ccccc4)[C@H]21)C3(C)C` [trihydrate docetaxel, docetaxel], the “Direct dissolution in pure polysorbate 80” value (pure polysorbate 80) is reported as “cannot be dissolved directly”. For the setting “tensoactive aqueous solution (aqueous Solutol HS15 for the solid composition), no organic solvent”, the “Direct dissolution in tensoactive aqueous solution” value is listed as “cannot be dissolved directly”.
